Test results published in patent US10681909B2, “Herbicidal triazoles” (FMC Corporation, priority 2014, dated 2020).

Columns and labels:
pigweed = test: Test A preemergence; assay type: in vivo, Amaranthus retroflexus; settings: Amaranthus retroflexus, pre-emergence, 240 h, 0 to 100 scale (0 no effect, 100 complete control), read-out: Plant response rating, Pigweed; for pest or weed control at 125 g/ha: 125 g ai/ha; for pest or weed control at 500 g/ha: 500 g ai/ha, approx. 10 d
In short: (§1)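 Loam/sand soil mix; compound in non-phytotoxic solvent + surfactant. Pre: directed soil spray right after planting seed. Post: potted plants 2–10 cm, 1–2 leaf stage, sprayed with same formulation.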

ducksalad = test: Test B flooded paddy test; assay type: in vivo, Heteranthera limosa; settings: Heteranthera limosa, 360 h, 125 g ai/ha, applied to paddy water at 2-leaf stage, visual rating after 13 to 15 d, scale 0 (no effect) to 100 (complete control), read-out: Plant response rating, Ducksalad, Flood
In short: (§2)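 Pots were flooded to 3 cm above the soil at treatment, and compounds were applied directly into the paddy water. That depth was held throughout. After 13 to 15 d in a greenhouse, plants were rated visually against untreated controls.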

rice = test: Test B flooded paddy test; assay type: in vivo, Oryza sativa; settings: Oryza sativa, 360 h, 125 g ai/ha, applied to paddy water at 2-leaf stage, visual rating after 13 to 15 d, scale 0 (no effect) to 100 (complete control), read-out: Plant response rating, Rice, Flood
In short: as §2

foxtail, giant = test: Test A postemergence; assay type: in vivo, Setaria faberii; settings: Setaria faberi, post-emergence, 240 h, 0 to 100 scale (0 no effect, 100 complete control), approx. 10 d, read-out: Plant response rating, Foxtail, Giant; for pest or weed control at 125 g/ha: 125 g ai/ha; for pest or weed control at 500 g/ha: 500 g ai/ha
In short: as §1

corn = test: Test A postemergence; assay type: in vivo, Zea mays; settings: Zea mays, post-emergence, 240 h, 0 to 100 scale (0 no effect, 100 complete control), approx. 10 d; for Corn plant response rating (crop injury, 0 = no effect, 100 = complete kill) at 125 g/ha: 125 g ai/ha; for Corn plant response rating (crop injury, 0 = no effect, 100 = complete kill) at 500 g/ha: 500 g ai/ha
In short: as §1

barnyardgrass = test: Test A postemergence; assay type: in vivo, Echinochloa crus-galli; settings: Echinochloa crus-galli, post-emergence, 240 h, 0 to 100 scale (0 no effect, 100 complete control), approx. 10 d, read-out: Plant response rating, Barnyardgrass; for pest or weed control at 125 g/ha: 125 g ai/ha; for pest or weed control at 500 g/ha: 500 g ai/ha
In short: as §1

Row | SMILES | pest or weed control at 125 g/ha (pigweed) [%] | pest or weed control at 500 g/ha (pigweed) [%] | pest or weed control at 125 g/ha (ducksalad) [%] | plant injury at 125 g/ha (rice) [%] | pest or weed control at 125 g/ha (foxtail, giant) [%] | pest or weed control at 500 g/ha (foxtail, giant) [%] | Corn plant response rating (crop injury, 0 = no effect, 100 = complete kill) at 125 g/ha (corn) [%] | Corn plant response rating (crop injury, 0 = no effect, 100 = complete kill) at 500 g/ha (corn) [%] | pest or weed control at 125 g/ha (barnyardgrass) [%] | pest or weed control at 500 g/ha (barnyardgrass) [%]
1 | Cn1nc(-c2ccc(F)cc2)nc1C(O)c1ccnc(C(F)(F)F)c1 (stereo not drawn) [Compound 14, α-[3-(4-fluorophenyl)-1-methyl-1H-1,2,4-triazol-5-yl]-2-(trifluoromethyl)-4-pyridinemethanol] | 90 | 100 | 0 | 0 | 20 | 30 | 10 | 20 | 10 | 20
2 | CS(=O)(=O)c1nc(-c2ccc(F)cc2)nn1Cc1ccnc(C(F)(F)F)c1 [Compound 29, 4-[[3-(4-fluorophenyl)-5-(methylsulfonyl)-1H-1,2,4-triazole-1-yl]methyl]-2-(trifluoromethyl)pyridine] | 0 | 0 | 0 | 0 | 0 | 0 | 0 | 0 | 0 | 0
